# Assay results reported in US11571423B2, “Small molecule modulators of human sting” (Curadev Pharma Limited, priority 2017, dated 2023).
# Biological target: hSTING(R232) (Homo sapiens, UniProt Q86WV6, H232R)
# Test: Luciferase reporter assay in HEK293T-hSTING-Luciferase cells, R232 (wild type) human STING
# Format: cell-based
# Conditions: 20 hr stimulation, read-out: R232 human activity (EC50 range)
# Method in brief: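 After 20 hr compound stimulation of 5×10^5 cells, secreted luciferase in the supernatant was measured by luminescence; values are fold-induction over baseline and EC50. The line is a clonal HEK293T stably carrying a STING plasmid (pUNO-1) and a luciferase reporter under five tandem ISREs fused to an ISG54 promoter.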
# Sequence of hSTING(R232) (Q86WV6 whole entry H232R): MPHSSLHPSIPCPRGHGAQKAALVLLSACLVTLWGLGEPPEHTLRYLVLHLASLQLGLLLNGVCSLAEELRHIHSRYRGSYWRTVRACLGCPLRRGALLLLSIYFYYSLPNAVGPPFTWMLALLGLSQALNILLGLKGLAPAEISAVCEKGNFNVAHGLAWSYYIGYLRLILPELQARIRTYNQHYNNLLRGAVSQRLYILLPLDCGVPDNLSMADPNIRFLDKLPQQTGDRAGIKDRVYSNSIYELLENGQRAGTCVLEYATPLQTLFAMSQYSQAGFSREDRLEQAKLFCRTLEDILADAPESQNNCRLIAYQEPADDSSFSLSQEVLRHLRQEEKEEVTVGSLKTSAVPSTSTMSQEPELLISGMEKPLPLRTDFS
row,EC50 [µM],Compound
1,> 10,"Cc1cc(CN2C(=O)N(C)C(C)c3ccc(C(=O)NCc4c(F)cc(F)cc4F)cc32)no1 (stereo not shown) [Example 200, 3,4-dimethyl-1-((5-methylisoxazol-3-yl)methyl)-2-oxo-N-(2,4,6-trifluorobenzyl)-1,2,3,4-tetrahydroquinazoline-7-carboxamide]"
2,> 10,"CN1Cc2ccc(C(=O)NCc3c(F)cc(F)cc3F)cc2N(Cc2ccnn2C)C1=O [Example 53, 3-methyl-1-((1-methyl-1H-pyrazol-5-yl)methyl)-2-oxo-N-(2,4,6-trifluorobenzyl)-1,2,3,4-tetrahydroquinazoline-7-carboxamide]"
3,1 to 10,"Cc1oc(-c2ccc(F)cc2)nc1CN1C(=O)N(C)Cc2ccc(C(=O)NCc3c(F)cc(F)cc3F)cc21 [Example 42, l-((2-(4-fluorophenyl)-5-methyloxazol-4-yl)methyl)-3-methyl-2-oxo-N-(2,4,6-trifluorobenzyl)-1,2,3,4-tetrahydroquinazoline-7-carboxamide]"
4,> 10,"CN1Cc2ccc(C(=O)NCc3c(F)cc(F)cc3F)cc2N(Cc2cc(C3CC3)no2)C1=O [Example 64, 1-((3-cyclopropylisoxazol-5-yl)methyl)-3-methyl-2-oxo-N-(2,4,6-trifluorobenzyl)-1,2,3,4-tetrahydroquinazoline-7-carboxamide]"
5,< 1,"Cc1ccc(Cl)c(CN2C(=O)N(C)C(C)c3ccc(C(=O)NCc4c(F)cc(F)cc4F)cc32)c1F (stereo not shown) [Example 163, 1-(6-chloro-2-fluoro-3-methylbenzyl)-3,4-dimethyl-2-oxo-N-(2,4,6-trifluorobenzyl)-1,2,3,4-tetrahydroquinazoline-7-carboxamide]"
6,< 1,"CN1Cc2ccc(C(=O)NCc3c(F)cc(F)cc3F)cc2N(Cc2cc(F)cc(F)c2)C1=O [Example 1, 1-(3,5-difluorobenzyl)-3-methyl-2-oxo-N-(2,4,6-trifluorobenzyl)-1,2,3,4-tetrahydroquinazoline-7-carboxamide]"
7,1 to 10,"COc1cccc(CNC(=O)c2ccc3c(c2)N(Cc2c(F)cccc2Cl)C(=O)N(C)[C@H]3C)c1F [Example 249, (S)-1-(2-chloro-6-fluorobenzyl)-N-(2-fluoro-3-methoxybenzyl)-3,4-dimethyl-2-oxo-1,2,3,4-tetrahydroquinazoline-7-carboxamide]"
8,> 10,"CN1Cc2ccc(C(=O)NCc3cccc4c3OCCO4)cc2N(Cc2c(F)cccc2Cl)C1=O [Example 44, l-(2-chloro-6-fluorobenzyl)-N-((2,3-dihydrobenzo[b][1,4]dioxin-5-yl)methyl)-3-methyl-2-oxo-1,2,3,4-tetrahydroquinazoline-7-carboxamide]"
9,> 10,"CN1Cc2ccc(C(=O)NCc3cccc(-c4ccnn4C)c3)cc2N(Cc2c(F)cccc2Cl)C1=O [Example 29, 1-(2-chloro-6-fluorobenzyl)-3-methyl-N-(3-(1-methyl-1H-pyrazol-5-yl)benzyl)-2-oxo-1,2,3,4-tetrahydroquinazoline-7-carboxamide]"
10,> 10,"C[C@H]1c2ccc(C(=O)NCc3c(F)cc(F)cc3F)cc2N(Cc2c(Cl)c[nH]c(=O)c2F)C(=O)N1C [Example 287, (S)-1-((5-chloro-3-fluoro-2-oxo-1,2-dihydropyridin-4-yl)methyl)-3,4-dimethyl-2-oxo-N-(2,4,6-trifluorobenzyl)-1,2,3,4-tetrahydroquinazoline-7-carboxamide]"
11,> 10,"COc1cc(F)ccc1CNC(=O)c1ccc2c(c1)N(Cc1c(F)cccc1Cl)C(=O)N(C)C2 [Example 61, 1-(2-chloro-6-fluorobenzyl)-N-(4-flnoro-2-methoxybenzyl)-3-methyl-2-oxo-1,2,3,4-tetrahydroquinazoline-7-carboxamide]"
12,> 10,"C[C@H]1c2ccc(C(=O)NCc3c(F)cc(F)cc3F)cc2N(Cc2c(F)ccc(C(=O)O)c2F)C(=O)N1C [Example 142, (S)-3-((3,4-Dimethyl-2-oxo-7-((2,4,6-trifluorobenzyl)carbamoyl)-3,4-dihydroquinazolin-1(2H)-yl)methyl)-2,4-difluorobenzoic acid]"
13,1 to 10,"Cc1cccc(F)c1CN1C(=O)N(C)C(C)c2ccc(C(=O)NCc3c(F)cc(F)cc3F)cc21 (stereo not shown) [Example 161, 1-(2-fluoro-6-methylbenzyl)-3,4-dimethyl-2-oxo-N-(2,4,6-trifluorobenzyl)-1,2,3,4-tetrahydroquinazoline-7-carboxamide]"
14,1 to 10,"CC1c2ccc(C(=O)NCc3c(F)cc(F)cc3F)cc2N(Cc2c(F)cccc2NS(C)(=O)=O)C(=O)N1C (stereo not shown) [Example 225, 1-(2-fluoro-6-(methylsulfonamido)benzyl)-3,4-dimethyl-2-oxo-N-(2,4,6-trifluorobenzyl)-1,2,3,4-tetrahydroquinazoline-7-carboxamide]"
15,< 1,"Cc1ccc(CN2C(=O)N(C)[C@@H](C)c3ccc(C(=O)NCc4c(F)cc(F)cc4F)cc32)c(F)c1 [Example 170, (S)-1-(2-fluoro-4-methylbenzyl)-3,4-dimethyl-2-oxo-N-(2,4,6-trifluorobenzyl)-1,2,3,4-tetrahydroquinazoline-7-carboxamide]"
16,> 10,"CC1c2ccc(C(=O)NCc3c(F)cc(F)cc3F)cc2N(Cc2c(F)cccc2OCC(=O)O)C(=O)N1C (stereo not shown) [Example 234, 2-(2-((3,4-dimethyl-2-oxo-7-((2,4,6-trifluorobenzyl)carbamoyl)-3,4-dihydroquinazolin-1(2H)-yl)methyl)-3-fluorophenoxy)acetic acid]"
17,> 10,"Cc1ccc(CNC(=O)c2ccc3c(c2)N(Cc2cc(F)cc(F)c2)C(=O)N(C)C3)o1 [Example 2, 1-(3,5-difluorobenzyl)-3-methyl-N-((5-methylfuran-2-yl)methyl)-2-oxo-1,2,3,4-tetrahydroquinazoline-7-carboxamide]"
18,< 1,"CC1c2ccc(C(=O)NCc3c(F)cc(F)cc3F)cc2N(Cc2c(N)cccc2F)C(=O)N1C (stereo not shown) [Example 173, 1-(2-amino-6-fluorobenzyl)-3,4-dimethyl-2-oxo-N-(2,4,6-trifluorobenzyl)-1,2,3,4-tetrahydroquinazoline-7-carboxamide]"
19,1 to 10,"COc1cc(F)ccc1CNC(=O)c1ccc2c(c1)N(Cc1c(F)cccc1Cl)C(=O)N(C)[C@H]2C [Example 247, (S)-1-(2-chloro-6-fluorobenzyl)-N-(4-fluoro-2-methoxybenzyl)-3,4-dimethyl-2-oxo-1,2,3,4-tetrahydroquinazoline-7-carboxamide]"
20,> 10,CN1CCN(c2cccc(CNC(=O)c3ccc4c(c3)N(Cc3c(F)cccc3Cl)C(=O)N(C)C4)c2)CC1 [Example 31]

row,Compound,EC50 [µM]
1,"C[C@H]1c2ccc(C(=O)NCc3c(F)cc(F)cc3F)cc2N(Cc2ccc(OP(=O)(O)O)cc2F)C(=O)N1C [Example 92, (S)-4-((3,4-dimethyl-2-oxo-7-((2,4,6-trifluorobenzyl)carbamoyl)-3,4-dihydroquinazolin-1(2H)-yl)methyl)-3-fluorophenyl dihydrogen phosphate]",< 1
2,"C[C@H]1c2ccc(C(=O)NCc3c(F)cc(F)cc3F)cc2N(Cc2c(F)ccc(OC(=O)N(C)CCC(=O)OCc3ccccc3)c2Cl)C(=O)N1C [Example 140, (S)-Benzyl 3-((2-chloro-3-((3,4-dimethyl-2-oxo-7-((2,4,6-trifluorobenzyl)carbamoyl)-3,4-dihydroquinazolin-1(2H)-yl)methyl)-4-fluorophenoxy)carbonyl)(methylamino)propanoate]",> 10
